Laboratory results published in patent US20090117199A1, “Method of treatment of cancer” (priority 1998, published 2009).
“Also recorded” adds a separate entry of the source. Read-outs that look alike come from different tables or passages of the source.

Assays:
[1] = tested on: Murine Hepa I-6 tumors; assay: Tumor response to IL 10% RB in saline, report 020111.01B; type: in vivo, BALB/c Nude Mice; settings: IL 30-50 μL/tumor Qd × 1; 8/group
[2] = tested on: A375 human melanoma xenograft tumors; settings: for #CR + #PR/SD (%): number (percent); for MST ± SEM (mean survival time to 2.0 g tumor): single injection
Experimental: The effects of a single IL injection of RB into A375 human melanoma xenograft tumors growing in nude mice were evaluated.
Chemoablation studies were conducted using female nu/nu mice (Harlan), 6-9 weeks of age and approximately 20 g at study Day 1.
Each mouse in Chemoablation study groups received a single subcutaneous implantation of the A375 melanoma tumor line. This consisted of implantation of either (1) a 1 mm^3 fragment of tissue in the flank or (2) subcutaneous injection of 100 μL of an A375 cell suspension into the flank. Treatment was initiated when the implanted tumor reached a size of approximately 70 mg (where tumor weight, in mg, was estimated using the formula (w^2×l)/2 in which w is width, and l is length in mm of the tumor).
RB (Aldrich product No. W1843) in isotonic saline; concentrations of 0.1% RB, 1%, RB, 1%, RB, 6% RB and 10% RB (w/v) was studied. Saline was used for the injection control group.
Treatment Plan: Mice were divided into treatment groups on study Day 1. RB treatment groups received a single IL injection of 0.1 mL RB in saline; the injection control group received a single IL injection of 0.1 mL saline. Growth control and sham treatment groups received no injection. All dosing was performed on Study Day 1. Follow up examination of the mice was conducted at regular intervals, and the test terminated on either Study day 65 or Study Day 85.
Each animal was euthanized when its A375 neoplasm reached a size of 2.0 g.
Treatment was assessed for occurrence of complete tumor regression (CR), partial tumor regression (PR) or stable disease (SD). The duration of CR, PR, or SD response was recorded throughout each study.
The Log-Rank test was used to determine the statistical significance of any difference in survival experienced between treatment and control groups. […] SigmaStat 3.0 (SPSS Inc) was used for all statistical analysis. Graphs were prepared using sigmaStat 3.0 or sigma Plot 2000 (SPSS Inc.) ver 6.00.

[3] = Local tolerance, single subcutaneous injection into normal tissue
Experimental: The local tolerance study was conducted using female Crl:SKH-1-hrBR hairless mice (Charles river), at least 6 weeks of age and 19-27 g at study Day 1.
All dosing was performed on Study Day 1. Follow-up examination of mice was conducted at regular intervals and the test terminated on either day 4 (3 animal from each group) or Day 15 (the remaining three animals).
Clinical observations were recorded daily (including dermal scoring using the Draize scoring system). Upon sacrifice, animals were subjected to a comprehensive necroscopy. Tissue samples from the injection site (and surrounding tissue) were obtained and examined histologically.

[4] = tested on: cancer cells; settings: essentially excluded from normal cells; cited from earlier work
[5] = tested on: PC-3 human prostate tumors; assay: Tumor response to IL 10% RB in saline, report 051017.02B; type: in vivo, Nu/nu Nude Mice; settings: 10% RB 45 μL/tumor Qd × 1; 24 hours post injection and over 29 days of observation

With `O=C([O-])c1c(Cl)c(Cl)c(Cl)c(Cl)c1-c1c2cc(I)c(=O)c(I)c-2oc2c(I)c([O-])c(I)cc12.[Na+].[Na+]` [RB, 4,5,6,7-Tetrachloro-2′,4′,5′,7′-tetraiodofluorescein] the “damage/necrosis to peripheral normal tissue” value [1] was “peripheral normal tissue (0/8)”, the tumor growth response ([2]; 0.1% RB (Group C)) was “qualitatively and statistically equivalent to the control groups” and the “#CR” value ([2]; 0.1% RB, 5 mg/kg, IL, N=5) was 0. For the same compound, the “#PR/SD” value ([2]; 0.1% RB, 5 mg/kg, IL, N=5) was 0, the “#CR + #PR/SD (%)” value ([2]; 0.1% RB, 5 mg/kg, IL, N=5) was 0 (0) and the “MST ± SEM (mean survival time to 2.0 g tumor)” value (“MST ± SEM” for short) ([2]; 0.1% RB, 5 mg/kg, IL, N=5) was 27.0 ± 3.0 (5) days. For the same compound, the “clinical response of tumors” value ([2]; 1% RB and higher, large fraction of tumors) was “localized tumor necrosis with rapid eschar formation”, the “#CR” value ([2]; 1% RB, 50 mg/kg, IL, N=12) was 1 and the “#PR/SD” value ([2]; 1% RB, 50 mg/kg, IL, N=12) was 1. For the same compound, the “#CR + #PR/SD (%)” value ([2]; 1% RB, 50 mg/kg, IL, N=12) was 2 (17), the “MST ± SEM” value ([2]; 1% RB, 50 mg/kg, IL, N=12) was 33.1 ± 4.5 (10) days and the “composite response (damage+necrosis/2) and mean severity of necrosis of tumor tissue” value ([2]; 1%, 3% and 6% RB treatment groups) was “elevated”. For the same compound, the “#CR” value ([2]; 3% RB, 150 mg/kg, IL, N=17) was 3, the “#PR/SD” value ([2]; 3% RB, 150 mg/kg, IL, N=17) was 3 and the “#CR + #PR/SD (%)” value ([2]; 3% RB, 150 mg/kg, IL, N=17) was 6 (35). The “MST ± SEM” value ([2]; 3% RB, 150 mg/kg, IL, N=17) was 50.0 ± 7.0 (11) days, the “survival versus growth controls” value ([2]; 6% RB (N=6), increased survival) was “not statistically different” and the “#CR” value ([2]; 6% RB, 300 mg/kg, IL, N=6) was 1. The “#PR/SD” value ([2]; 6% RB, 300 mg/kg, IL, N=6) was 0, the “#CR + #PR/SD (%)” value ([2]; 6% RB, 300 mg/kg, IL, N=6) was 1 (17) and the “MST ± SEM” value ([2]; 6% RB, 300 mg/kg, IL, N=6) was 35.4 ± 6.6 (5) days. For the same compound, the “#CR” value ([2]; 10% RB, 500 mg/kg, IL, N=5) was 1, the “#PR/SD” value ([2]; 10% RB, 500 mg/kg, IL, N=5) was 1 and the “#CR + #PR/SD (%)” value ([2]; 10% RB, 500 mg/kg, IL, N=5) was 2 (40). For the same compound, the “MST ± SEM” value ([2]; 10% RB, 500 mg/kg, IL, N=5) was 52.2 ± 14.9 (3) days, the systemic toxicity ([2]; all tumour treatments, IL) was “well-tolerated” and the “tolerability of intralesional injection” value ([2]; concentrations up to 10% (500 mg/kg)) was “well tolerated by all animals”. For the same compound, the “residual RB in perilesional tissue” value ([2]; terminal sacrifice) was “no residual RB”, the “histology of tumor and peritumor tissue” value ([2]; terminal sacrifice, no dose-related trends) was “minimal perilesional inflammation and damage” and the fatalities ([3]; SC, 2000 mg/kg study group (days 2 and 3), N=6) was “two fatalities”. For the same compound, the “swelling at the injection site” value ([3]; SC, 250 and 500 mg/kg) was “Swelling was also noted in the injection site for most animals”, the injection site effect ([3]; SC, 1250-2000 mg/kg) was “massive necrosis at the injection site” and the “histology of injection site” value ([3]; SC, <500 mg RB kg body weight, days 4 and 15) was “focal necrosis at the injection site”. For the same compound, the “histological necrosis in normal tissue” value ([3]; SC, dosages up to 250 mg/kg at 1 days post administration) was “no histological evidence of necrosis”, the “clinical outcome, local tolerance” value ([3]; SC, up to 500 mg RB/kg body weight (10%)) was “mild side effects primarily limited to localized discoloration of the injection site; also recorded: only mild clinical effects” and the systemic effects ([3]; lower dosage groups (below 2000 mg/kg)) was “No systemic effects”. For the same compound, the kidney lesions ([3]; one of the two fatalities in Group 6 (2000 mg/kg)) was “mild degeneration of the kidney”, the liver lesions ([3]; the two fatalities in Group 6 (2000 mg/kg)) was “mild to moderate degeneration of the liver” and the “uptake into cancer cells versus normal cells” value [4] was “preferential uptake into cancer cells”. The tumors fully ablated [5] was “IL RB fully ablated 8/8 tumors 24”.
